Test system: platelet aggregates
Experiment: Platelet function test: inflow pressure of blood through collagen-coated microchip with plasma-treated channel dividing section (Test Example 3)
Type: ex vivo
Conditions: blood collected before and after dosing of 100 mg of aspirin, hirudin 25 μg/ml anticoagulation, flow rate 27 μl/minute or 9 μl/minute
Method: Blood was collected from a sample before and after dosing of 100 mg of aspirin, and each obtained blood was subjected to anticoagulation treatment with hirudin (25 μg/ml). The anticoagulated blood was subjected to flow through the channel of a microchip having a plasma-treated channel dividing section. More particularly, the reservoir 109 was filled with anticoagulated blood (before and after dosing of 100 mg of aspirin), and the pump 111 was filled with mineral oil. The pump 111 was connected to the reservoir 109, and a tip of the reservoir 109 was connected to the inlet 106 of the microchip 1. By injecting mineral oil from the pump 111 at a flow rate of 27 μl/minute or 9 μl/minute into the reservoir to overlay the mineral oil on the blood, the blood in the reservoir was pushed into the microchip 1 at the same flow rate, while the inflow pressure of the mineral oil (that is, the inflow pressure of the blood) was measured with a pressure sensor which is not shown.
In the case where the microchip having a plasma-untreated channel dividing section was used, the pressure increase was insufficient and the effect of aspirin could be therefore hardly identified. […]
Thus, the plasma irradiation increased the pressure to a higher level, and the stability of platelet aggregates under high-flow-rate conditions could be analyzed more accurately.

For `CC(=O)Oc1ccccc1C(=O)O` [aspirin], which “effect of aspirin on platelet aggregation (inflow pressure of blood)” value is on record?
The value was “decrease the stability of formed platelet aggregates rather than an effect to decrease the formation rate of platelet aggregates”.

From patent US8796031B2, “Microchip for platelet examination and platelet examination device using same” (Fujimori Kogyo Co., Ltd., priority 2010, dated 2014)
